Residues, ends and D or L forms follow the SMILES beside them. *: point of attachment. AMC = Cc1cc(=O)oc2cc(N*)ccc12; Boc = CC(C)(C)OC(=O)*
Legend:
Assay in all cases: fluorogenic AMC release, Michaelis-Menten fit
Type in all cases: biochemical, Blattella germanica
Conditions in all cases: read-out: Substrate Km (μM) / QAR / Trypsin; 50 mM Tris-HCl pH 8, 0.2% NP40, 1.5 mM CaCl2
E2 = test system: E2
E3 = test system: E3
E1 = test system: E1

Km (E2): 2 ± 0.3 µM | Km (E3): 3 ± 0.3 µM | Km (E1): 3 ± 0.8 µM
SMILES: Cc1cc(=O)oc2cc(NC(=O)[C@H](CCCNC(=N)N)NC(=O)[C@H](C)NC(=O)[C@H](CCC(N)=O)NC(=O)OC(C)(C)C)ccc12 [QAR, Boc-Glutamine-Alanine-Arginine (QAR)-aminomethylcoumarin] (Boc-Gln-Ala-Arg-{AMC})
